Laboratory results from ChEMBL document CHEMBL1201862, “PubChem BioAssay data set” (2004).
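Tested at 5 concentrations; 48 h exposure; 96-well plates; endpoints linearly interpolated, else capped at highest concentration. The concentration for 50% growth inhibition is given as GI50.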 Active and inactive are the calls of the source. Rule as the data show it: active = GI50 up to about 1.1 µM and inactive = higher.

Experiments:
Experiment in all cases: NCI tumour cell line growth inhibition, 48 h
[1] = tested on: T47D
[2] = tested on: NCI-H226
[3] = tested on: OVCAR-8
[4] = tested on: SR
[5] = tested on: SK-MEL-2
[6] = tested on: OVCAR-5
[7] = tested on: SK-MEL-5
[8] = tested on: HOP-62
[9] = tested on: CCRF-CEM
[10] = tested on: SNB-75
[11] = tested on: HCT-15
[12] = tested on: UACC-62
[13] = tested on: MDA-MB-231
[14] = tested on: HOP-92
[15] = tested on: UO-31
[16] = tested on: DU-145
[17] = tested on: NCI-H522
[18] = tested on: RPMI-8226
[19] = tested on: Malme-3M
[20] = tested on: HL-60
[21] = tested on: BT-549
[22] = tested on: NCI-H460
[23] = tested on: HCC 2998
[24] = tested on: A498
[25] = tested on: KM12
[26] = tested on: SN12C
[27] = tested on: MOLT-4
[28] = tested on: SF-295
[29] = tested on: NCI-H23
[30] = tested on: SK-OV-3
[31] = tested on: RXF 393
[32] = tested on: COLO 205
[33] = tested on: U-251
[34] = tested on: Hs-578T
[35] = tested on: K562
[36] = tested on: MDA-MB-435
[37] = tested on: M14
[38] = tested on: HT-29
[39] = tested on: NCI/ADR-RES
[40] = tested on: OVCAR-4
[41] = tested on: MCF7
[42] = tested on: CAKI-1
[43] = tested on: PC-3
[44] = tested on: MDA-N
[45] = tested on: IGROV-1
[46] = tested on: SNB-19
[47] = tested on: OVCAR-3
[48] = tested on: HCT-116
[49] = tested on: SK-MEL-28
[50] = tested on: SF-539
[51] = tested on: EKVX
[52] = tested on: TK-10
[53] = tested on: SF-268
[54] = tested on: UACC-257
[55] = tested on: 786-0
[56] = tested on: ACHN
[57] = tested on: A549

In the case of `CC(=O)O[C@H]1CC[C@H]2[C@@H]3CC[C@H]4Nc5c(cnn5S(C)(=O)=O)C[C@]4(C)[C@H]3CC[C@]12C`, the GI50 [1] is reported as 37 µM (inactive), the GI50 [2] is reported as 53.5 µM (inactive) and the GI50 [3] is reported as 45.4 µM (inactive). For the same compound, the GI50 [4] was > 100 µM (inactive), the GI50 [5] was 61.7 µM (inactive) and the GI50 [6] was > 100 µM (inactive). The GI50 [7] was 84.3 µM (inactive), the GI50 [8] was 27.6 µM (inactive) and the GI50 [9] was 7.94 µM (inactive). For the same compound, the GI50 [10] was 37.2 µM (inactive), the GI50 [11] was over 100 µM and the GI50 [12] was 33.7 µM (inactive). The GI50 [13] was > 100 µM (inactive), the GI50 [14] was 98.9 µM (inactive) and the GI50 [15] was 88.1 µM (inactive). For the same compound, the GI50 [16] was > 100 µM (inactive), the GI50 [17] was 70 µM (inactive) and the GI50 [18] was > 100 µM (inactive). The GI50 [19] was 38.7 µM (inactive), the GI50 [20] was > 100 µM (inactive) and the GI50 [21] was 27.5 µM (inactive). For the same compound, the GI50 [22] was 68.2 µM (inactive), the GI50 [23] was 56.4 µM (inactive) and the GI50 [24] was > 100 µM (inactive). The GI50 [25] was > 100 µM (inactive), the GI50 [26] was > 100 µM (inactive) and the GI50 [27] was 47.9 µM (inactive). For the same compound, the GI50 [28] was 46.8 µM (inactive), the GI50 [29] was > 100 µM (inactive) and the GI50 [30] was 77.6 µM (inactive). For the same compound, the GI50 [31] was > 100 µM (inactive), the GI50 [32] was > 100 µM (inactive) and the GI50 [33] was 53.1 µM (inactive). The GI50 [34] was 45.6 µM (inactive), the GI50 [35] was 62.7 µM (inactive) and the GI50 [36] was > 100 µM (inactive). The GI50 [37] was 91.4 µM (inactive), the GI50 [38] was 48.5 µM (inactive) and the GI50 [39] was 87.1 µM (inactive). The GI50 [40] was 18.5 µM (inactive), the GI50 [41] was 28.6 µM (inactive) and the GI50 [42] was 38.1 µM (inactive). The GI50 [43] was 64.4 µM (inactive), the GI50 [44] was > 100 µM (inactive) and the GI50 [45] was > 100 µM (inactive). For the same compound, the GI50 [46] was 36.7 µM (inactive), the GI50 [47] was 27.5 µM (inactive) and the GI50 [48] was 46.8 µM (inactive). For the same compound, the GI50 [49] was 48.2 µM (inactive).

For `Cn1c(=O)c2[nH]c(N/N=C3/SCC(=O)N3Cc3ccccc3)nc2n(C)c1=O`, the GI50 [1] was 41.1 µM (inactive), the GI50 [2] was > 100 µM (inactive) and the GI50 [3] was > 100 µM (inactive). For the same compound, the GI50 [50] was 29.1 µM (inactive), the GI50 [4] was 24.9 µM (inactive) and the GI50 [5] was 42.8 µM (inactive). For the same compound, the GI50 [6] was 19 µM (inactive), the GI50 [7] was 34.9 µM (inactive) and the GI50 [8] was > 100 µM (inactive). The GI50 [9] was 22.1 µM (inactive), the GI50 [11] was over 100 µM and the GI50 [12] was > 100 µM (inactive). The GI50 [51] was 42.1 µM (inactive), the GI50 [13] was 51.9 µM (inactive) and the GI50 [14] was 15.7 µM (inactive). The GI50 [15] was > 100 µM (inactive), the GI50 [16] was 65.6 µM (inactive) and the GI50 [17] was 50.8 µM (inactive). The GI50 [18] was 42.4 µM (inactive), the GI50 [19] was 52.5 µM (inactive) and the GI50 [52] was > 100 µM (inactive). For the same compound, the GI50 [20] was 69.5 µM (inactive), the GI50 [21] was > 100 µM (inactive) and the GI50 [22] was > 100 µM (inactive). The GI50 [23] was > 100 µM (inactive), the GI50 [24] was > 100 µM (inactive) and the GI50 [25] was 48.2 µM (inactive). For the same compound, the GI50 [26] was > 100 µM (inactive), the GI50 [27] was 29 µM (inactive) and the GI50 [28] was 21.2 µM (inactive). For the same compound, the GI50 [29] was 71.9 µM (inactive), the GI50 [30] was 30.2 µM (inactive) and the GI50 [53] was 33.3 µM (inactive). For the same compound, the GI50 [31] was > 100 µM (inactive), the GI50 [32] was > 100 µM (inactive) and the GI50 [33] was 55.3 µM (inactive). The GI50 [34] was 17.1 µM (inactive), the GI50 [35] was 30.5 µM (inactive) and the GI50 [36] was 19.1 µM (inactive). The GI50 [37] was 44.3 µM (inactive), the GI50 [54] was > 100 µM (inactive) and the GI50 [38] was 48.9 µM (inactive). For the same compound, the GI50 [39] was > 100 µM (inactive), the GI50 [40] was 41.6 µM (inactive) and the GI50 [41] was 19.4 µM (inactive). The GI50 [55] was 27 µM (inactive), the GI50 [42] was > 100 µM (inactive) and the GI50 [56] was > 100 µM (inactive). The GI50 [43] was > 100 µM (inactive), the GI50 [44] was 16.4 µM (inactive) and the GI50 [45] was > 100 µM (inactive). The GI50 [46] was > 100 µM (inactive), the GI50 [47] was 74.5 µM (inactive) and the GI50 [48] was 45.4 µM (inactive). For the same compound, the GI50 [49] was > 100 µM (inactive) and the GI50 [57] was > 100 µM (inactive).
